ChEMBL document CHEMBL5108010, “Structure-activity relationship studies on divalent naphthalene diimide G quadruplex ligands with anticancer and antiparasitic activity” (Bioorg Med Chem, 2022)

How the values were obtained:
[1] = Cytotoxicity against human MRC5 cells assessed as inhibition of cell proliferation incubated for 72 hrs by alamar blue assay; assay type: toxicity, cell-based; conditions: human, MRC5 cells
[2] = tested on: HeLa; assay: Cytotoxicity against human HeLa cells assessed as inhibition of cell proliferation incubated for 72 hrs by alamar blue assay; assay type: functional, cell-based; conditions: Homo sapiens, HeLa, 72 h
[3] = tested on: Trypanosoma brucei; assay: Antitrypanosomal activity against Trypanosoma brucei bloodstream form assessed as inhibition of parasite growth incubated for 72 hrs by alamar blue assay; assay type: functional, organism-based; conditions: Trypanosoma brucei, 72 h
[4] = tested on: Leishmania major; assay: Antileishmanial activity against Leishmania major (MHOM/IL/80/Friedlin) promastigotes assessed as inhibition of parasite growth incubated for 72 hrs by MTT assay; assay type: functional, organism-based; conditions: Leishmania major, MHOM/IL/80/Friedlin, 72 h
[5] = Selectivity index, ratio of IC50 for cytotoxicity against human MRC5 cells to IC50 for cytotoxicity against human HeLa cells; assay type: toxicity, cell-based; conditions: MRC5 cells versus HeLa cells, read-out: Ratio IC50
[6] = Selectivity index, ratio of IC50 for cytotoxicity against human MRC5 cells to IC50 for antitrypanosomal activity against Trypanosoma brucei bloodstream form; assay type: toxicity, cell-based; conditions: MRC5 cells versus Trypanosoma brucei bloodstream form, read-out: Ratio IC50
[7] = Selectivity index, ratio of IC50 for cytotoxicity against human MRC5 cells to IC50 for antileishmanial activity against Leishmania major (MHOM/IL/80/Friedlin) promastigotes; assay type: toxicity, cell-based; conditions: read-out: Ratio IC50
[8] = tested on: Quadruplex DNA; assay: Binding affinity to G-quadruplex telomeric DNA F21T (5'-duplex GGG TTAGGG TTAGGG TTAGGG-3') (unknown origin) assessed as stabilization by measuring change in melting temperature at 10 uM in potassium buffer by FRET melting assay; assay type: nucleic-acid assay
[9] = tested on: Quadruplex DNA; assay: Binding affinity to G-quadruplex telomeric DNA F21T (5'-duplex GGG TTAGGG TTAGGG TTAGGG-3') (unknown origin) assessed as stabilization by measuring change in melting temperature at 10 uM in sodium buffer by FRET melting assay; assay type: nucleic-acid assay
[10] = tested on: Quadruplex DNA; assay: Binding affinity to G-quadruplex telomeric DNA FMycT (5'-duplex GGG TTAGGG TTAGGG TTAGGG-3') (unknown origin) assessed as stabilization by measuring change in melting temperature at 10 uM in potassium buffer by FRET melting assay; assay type: nucleic-acid assay
[11] = tested on: Quadruplex DNA; assay: Binding affinity to Trypanosoma brucei G-quadruplex telomeric DNA FEBR1T (5'-duplex GGG TTAGGG TTAGGG TTAGGG-3') assessed as stabilization by measuring change in melting temperature at 10 uM in potassium buffer by FRET melting assay; assay type: nucleic-acid assay
[12] = Binding affinity to hairpin duplex DNA F10T (unknown origin) assessed as stabilization by measuring change in melting temperature at 10 uM in potassium buffer by FRET melting assay
[13] = Drug uptake in human MRC5 cells incubated at 4 degreeC for 30 mins by flow cytometry analysis; assay type: ADME, cell-based; conditions: mrc5, 0.5 h
[14] = Drug uptake in human MRC5 cells incubated at 4 degreeC for 2 hrs by flow cytometry analysis; assay type: ADME, cell-based; conditions: mrc5, 2 h
[15] = Drug uptake in human MRC5 cells incubated at 37 degreeC for 30 mins by flow cytometry analysis; assay type: ADME, cell-based; conditions: mrc5, 0.5 h
[16] = Drug uptake in human MRC5 cells incubated at 37 degreeC for 2 hrs by flow cytometry analysis; assay type: ADME, cell-based; conditions: mrc5, 2 h
[17] = Drug uptake in Trypanosoma brucei incubated at 4 degreeC for 2 hrs by flow cytometry analysis; assay type: ADME
[18] = Drug uptake in Trypanosoma brucei incubated at 4 degreeC for 16 hrs by flow cytometry analysis; assay type: ADME
[19] = Drug uptake in Trypanosoma brucei incubated at 37 degreeC for 2 hrs by flow cytometry analysis; assay type: ADME
[20] = Drug uptake in Trypanosoma brucei incubated at 37 degreeC for 16 hrs by flow cytometry analysis; assay type: ADME
[21] = Drug uptake in human MRC5 cells assessed as drug internalization at 5 uM incubated for 30 mins by DAPI staining based confocal fluorescence microscopic analysis; assay type: ADME, cell-based; conditions: mrc5, 0.5 h
[22] = Drug uptake in human MRC5 cells assessed as drug internalization at 5 uM incubated for 120 mins by DAPI staining based confocal fluorescence microscopic analysis; assay type: ADME, cell-based; conditions: mrc5, 2 h
[23] = Drug uptake in Trypanosoma brucei assessed as drug internalization at 5 uM incubated for 2 hrs by DAPI staining based confocal fluorescence microscopic analysis; assay type: ADME
[24] = Drug uptake in Trypanosoma brucei assessed as drug internalization at 5 uM incubated for 6 hrs by DAPI staining based confocal fluorescence microscopic analysis; assay type: ADME
[25] = Drug internalization in nuclei of human MRC5 cells at 5 uM incubated for 2 hrs by DAPI staining based confocal fluorescence microscopic analysis; assay type: ADME, cell-based; conditions: mrc5, 2 h
[26] = Drug internalization in nuclei of Trypanosoma brucei at 5 uM incubated for 6 hrs by DAPI staining based confocal fluorescence microscopic analysis; assay type: ADME

SMILES: CN1CCN(c2ccc(N3C(=O)c4ccc5c6c(ccc(c46)C3=O)C(=O)N(c3ccc(N4CCN(C)CC4)cc3)C5=O)cc2)CC1
- IC50 at 72 h [1]: 22300 nM
- IC50 [2]: 2290 nM
- IC50 [3]: 750 nM
- IC50 [4]: 930 nM
- selectivity ratio [5]: 9.72
- selectivity ratio [6]: 29.5
- selectivity ratio [7]: 23.8
- ΔTm [8]: 1.4 °C
- ΔTm [9]: 1.3 °C
- ΔTm [10]: 1.8 °C
- ΔTm [11]: 0.9 °C
- ΔTm [12]: -0.1 °C
- Drug uptake [13]: Active
- Drug uptake [14]: Active
- Drug uptake [15]: Active
- Drug uptake [16]: Active
- Drug uptake [17]: Active
- Drug uptake [18]: Active
- Drug uptake [19]: Active
- Drug uptake [20]: Active
- Drug uptake [21]: Active
- Drug uptake [22]: Active
- Drug uptake [23]: Active
- Drug uptake [24]: Active
- Drug uptake [25]: Active
- Drug uptake [26]: Active
